# Results as given in patent US20140186869A1, “METHOD FOR INHIBITING PROTEASE IN BIOLOGICAL SAMPLE CONTAINING PANCREATIC JUICE COMPONENTS” (OLYMPUS CORPORATION, priority 2011, published 2014).
# Read-outs that look alike come from different tables or passages of the source.
# What was measured:
# [1] = tested on: protease present in pancreatic juice; test: Protease activity (fluorescent-labeled casein, same manner as Example 1) in pancreatic juice specimens; type: biochemical; conditions: for concentration at which high levels of protease inhibitory effects against protease present in pancreatic juice are obtained: Example 7, pancreatin and two pancreatic juice specimens, various final concentrations, FIGS. 9-11
# [2] = tested on: protease present in pancreatic juice; test: as above; type: biochemical; conditions: pancreatin and two pancreatic juice specimens, 1 mM PMSF, 4 mM AEBSF; for protease inhibitory effects against protease present in pancreatic juice: Example 4, 5 mM p-APMSF, 100 μl TLCK, 100 μM TPCK, FIG. 5; for protease inhibitory effect (fluorescence = degraded amount of casein): Example 3, 0.3 μM aprotinin, 50 μM leupeptin, FIG. 4
# Experimental: After adding each protease inhibitor cocktail so that the final concentration thereof was equal to manufacturer's recommended concentration (1×) or a concentration equal to 5 times the recommended concentration (5×), protease activity was measured using a simulated artificial pancreatic juice in the form of “pancreatin”, a digestive enzyme produced from porcine pancreas in which pancreatic enzymes are present in an activated state. Protease activity was measured using EnzCheck Protease Assay Kits (Molecular Probes). […] In addition, a sample solution in which fluorescent-labeled casein was added directly to pancreatin (inhibitor (−), DMSO (−)), a sample solution in which DMSO was added to pancreatin so that the added amount of DMSO was the same as in the case of adding each protease inhibitor cocktail at the manufacturer's recommended concentration (1×) (inhibitor (−), DMSO 1×), and a sample solution in which DMSO was added to pancreatin so that the added amount of DMSO was the same as in the case of adding each protease inhibitor cocktail at a concentration equal to five times the manufacturer's recommended concentration (5×) (inhibitor (−), DMSO 5×) were prepared for use as controls, and these sample solutions were measured for protease activity in the same manner as the protease inhibitor cocktails.
# There are four types of serine protease inhibitors contained in Protease Inhibitor Mix (GE) consisting of aprotinin, leupeptin, PMSF and AEBSF (concentrations are not disclosed). Therefore, protease activity was measured in the same manner as Example 1 using pancreatin and two types of pancreatic juice specimens for 15 combinations of the four types of inhibitors prepared so that the final concentration was equal to the maximum recommended concentration for each protease inhibitor alone. Furthermore, the maximum recommended concentrations consisted of 0.3 μM for aprotinin (Roche), 50 μM for leupeptin (Roche), 1 mM for PMSF (Roche) and 4 mM for AEBSF (Roche). In addition, protease activity was also measured in the same manner for a sample solution to which protease inhibitor was not added (Control Sample Solution 1), a sample solution containing the recommended concentration of Inhibitor Cocktail 1 (Complete, Roche) (Control Sample Solution 2), a sample solution containing Inhibitor Cocktail 1 at 5 times the recommended concentration (5×) (Control Sample Solution 3), a sample solution containing the recommended concentration of Inhibitor Cocktail 4 (Protease Inhibitor Mix, GE) (Control Sample Solution 4), and a sample solution containing Inhibitor Cocktail 4 at five times the recommended concentration (5×) (Control Sample Solution 5).
# More specifically, a sample solution obtained by adding 1 mM PMSF and 4 mM AEBSF, a sample solution obtained by adding 1 mM PMSF, a sample solution obtained by adding 4 mM AEBSF, a sample solution obtained by adding 5 mM p-APMSF, a sample solution obtained by adding […] TLCK and a sample solution obtained by adding 100 μM TPCK were prepared for use as protease inhibitors, and the protease activity of each sample solution was measured in the same manner as Example 1 using pancreatin and two types of pancreatic juice specimens. In addition, the protease activities of a sample solution to which protease inhibitor was not added (inhibitor (−)), a sample solution containing Inhibitor Cocktail 1 at the recommended concentration (Complete, Roche), a sample solution containing Inhibitor Cocktail 1 at 5 times the recommended concentration (5×), a sample solution containing Inhibitor Cocktail 4 at the recommended concentration (Protease Inhibitor Mix, GE), and a sample solution containing Inhibitor Cocktail 4 at five times the recommended concentration (5×) were also measured in the same manner.
# [3] = tested on: pancreatin (simulated artificial pancreatic juice; pancreatic enzymes in an activated state); test: Protease activity, EnzCheck Protease Assay Kits (fluorescent-labeled casein), in pancreatin solution; type: biochemical, porcine; conditions: Example 5; 0.0003 mM to 0.3 mM Aprotinin; FIGS. 6 and 7
# Experimental: […] 5 times the recommended concentration (5×), protease activity was measured using a simulated artificial pancreatic juice in the form of “pancreatin”, a digestive enzyme produced from porcine pancreas in which pancreatic enzymes are present in an activated state. Protease activity was measured using EnzCheck Protease Assay Kits (Molecular Probes). More specifically, fluorescent-labeled casein provided with the kits was added to a pancreatin solution to which each protease inhibitor cocktail had been added, and after incubating for 2 hours at 37° C., fluorescence was measured at a fluorescence wavelength of Ex/Em=485/535 nm. […]
# Fluorescence plotted on the vertical axis represents the degraded amount of casein, and that value was estimated to be the value of protease activity.
# [4] = tested on: protease in duodenal juice specimens; test: Protease activity (fluorescent-labeled casein) in duodenal juice specimens; type: biochemical; conditions: Example 9; four duodenal juice specimens; 1 mM PMSF + 4 mM AEBSF plus 0.3 mM Aprotinin or 1 mM TLCK; FIG. 14
# Experimental: After adding each protease inhibitor cocktail so that the final concentration thereof was equal to manufacturer's recommended concentration (1×) or a concentration equal to 5 times the recommended concentration (5×), protease activity was measured using a simulated artificial pancreatic juice in the form of “pancreatin”, a digestive enzyme produced from porcine pancreas in which pancreatic enzymes are present in an activated state. Protease activity was measured using EnzCheck Protease Assay Kits (Molecular Probes). More specifically, fluorescent-labeled casein provided with the kits was added to a pancreatin solution to which each protease inhibitor cocktail had been added, and after incubating for 2 hours at 37° C., fluorescence was measured at a fluorescence wavelength of Ex/Em=485/535 nm. […]
# More specifically, a sample solution obtained by adding 1 mM PMSF and 4 mM AEBSF, a sample solution obtained by adding 1 mM PMSF, 4 mM AEBSF and 0.3 mM Aprotinin, and a sample solution obtained by adding 1 mM PMSF, 4 mM AEBSF and 1 mM TLCK were prepared as protease inhibitors, and the protease activity of each sample solution was measured in the same manner as Example 1 using four types of duodenal juice specimens. The protease activity of a sample solution to which protease inhibitor was not added (Inhibitor (−)) was also measured in the same manner as a control.
# [5] = Example 5, pancreatic juice specimens, 10-50 μm Elastase Inhibitor I, 1-10 mM EDTA, 0.0003-0.3 mM Aprotinin, 0.005-5 mM Leupeptin, 0.01-1 mM TLCK or TPCK, FIGS. 6 and 7
Molecule,concentration at which high levels of protease inhibitory effects against protease present in pancreatic juice are obtained [1] [mM],protease inhibitory effects against protease present in pancreatic juice [2],"inhibitory effects against protease present in pancreatic juice [1, 5]",also measured
"NCCc1ccc(S(=O)(=O)F)cc1 [AEBSF, 4-(2-aminoethyl)-benzenesulfonyl fluoride]",≥ 4,high levels of protease inhibitory effects,–,–
"Cc1ccc(S(=O)(=O)N[C@@H](Cc2ccccc2)C(=O)CCl)cc1 [TPCK, N-a-tosyl-L-phenylalanine chloromethyl ketone]",–,low levels of protease inhibitory effects,slight protease inhibitory effects,–
CC(=O)N[C@@H](CC(C)C)C(=O)N[C@@H](CC(C)C)C(=O)N[C@H](C=O)CCCNC(=N)N [Leupeptin],–,–,hardly any inhibitory effects,protease inhibitory effect (fluorescence = degraded amount of casein) [2]: hardly any effect on protease activity
p-amidinophenylmethane sulfonyl fluoride hydrochloride [p-APMSF],≥ 2,high levels of protease inhibitory effects,–,–
O=C(O)CN(CCN(CC(=O)O)CC(=O)O)CC(=O)O [EDTA],–,–,–,inhibitory effects against protease present in pancreatic juice [1]: hardly any inhibitory effects
"O=S(=O)(F)Cc1ccccc1 [PMSF, phenylmethylsulfonyl fluoride]",≥ 1,high levels of protease inhibitory effects,–,–
Aprotinin,–,–,hardly any effects,"protease inhibitory effects against pancreatin (simulated pancreatic juice) [3]: weak protease inhibitory effects; protease inhibitory effect (fluorescence = degraded amount of casein) [2]: hardly any effect on protease activity; additional inhibitory effects when added to PMSF and AEBSF, compared with PMSF and AEBSF only [4]: additional inhibitory effects were not observed"
"Cc1ccc(S(=O)(=O)N[C@@H](CCCCN)C(=O)CCl)cc1 [TLCK, N-a-tosyl-L-lysine chloromethyl ketone]",–,low levels of protease inhibitory effects,hardly any inhibitory effects,"additional inhibitory effects when added to PMSF and AEBSF, compared with PMSF and AEBSF only [4]: additional inhibitory effects were observed"
